The values that follow come from patent publication US7488823B2, “Cyanoguanidines and cyanoamidines as ErbB2 and EGFR inhibitors” (Array Biopharma, Inc., priority 2003, dated 2009).

ErbB2, sequence (P04626 23-1255): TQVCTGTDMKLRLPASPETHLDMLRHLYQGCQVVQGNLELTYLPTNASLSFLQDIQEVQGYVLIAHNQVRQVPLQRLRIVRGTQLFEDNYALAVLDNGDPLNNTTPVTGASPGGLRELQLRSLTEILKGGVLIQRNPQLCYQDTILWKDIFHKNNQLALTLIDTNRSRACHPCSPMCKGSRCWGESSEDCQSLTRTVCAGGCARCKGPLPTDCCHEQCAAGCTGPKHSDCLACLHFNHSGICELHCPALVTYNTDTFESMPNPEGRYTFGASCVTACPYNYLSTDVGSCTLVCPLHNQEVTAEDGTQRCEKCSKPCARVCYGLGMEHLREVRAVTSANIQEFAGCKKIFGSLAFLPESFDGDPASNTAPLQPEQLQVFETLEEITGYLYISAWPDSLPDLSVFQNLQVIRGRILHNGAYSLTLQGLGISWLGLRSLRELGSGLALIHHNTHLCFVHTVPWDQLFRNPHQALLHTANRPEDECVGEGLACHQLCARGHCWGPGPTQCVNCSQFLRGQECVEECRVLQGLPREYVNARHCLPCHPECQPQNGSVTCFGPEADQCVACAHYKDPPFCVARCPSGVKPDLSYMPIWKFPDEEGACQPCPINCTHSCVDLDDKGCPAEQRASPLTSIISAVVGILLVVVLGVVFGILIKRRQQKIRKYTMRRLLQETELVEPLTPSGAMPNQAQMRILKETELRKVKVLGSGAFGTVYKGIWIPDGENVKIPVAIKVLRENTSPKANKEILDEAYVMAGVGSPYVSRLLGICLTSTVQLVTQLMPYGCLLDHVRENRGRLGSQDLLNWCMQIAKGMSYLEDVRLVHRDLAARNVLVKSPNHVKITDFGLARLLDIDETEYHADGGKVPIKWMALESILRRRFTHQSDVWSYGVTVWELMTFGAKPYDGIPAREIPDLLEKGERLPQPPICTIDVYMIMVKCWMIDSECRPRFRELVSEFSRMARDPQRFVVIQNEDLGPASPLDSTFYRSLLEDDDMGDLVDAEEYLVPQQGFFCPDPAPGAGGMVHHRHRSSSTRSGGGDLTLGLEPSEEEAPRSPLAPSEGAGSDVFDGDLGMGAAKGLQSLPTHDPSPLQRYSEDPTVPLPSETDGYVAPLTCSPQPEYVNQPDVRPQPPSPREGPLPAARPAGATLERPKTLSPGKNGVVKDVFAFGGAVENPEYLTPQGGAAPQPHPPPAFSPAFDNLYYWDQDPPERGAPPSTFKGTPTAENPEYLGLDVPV

The assay addresses ErbB2 (Homo sapiens, UniProt P04626). Briefly: ErbB kinase ELISA on poly-Glu-Tyr 4:1 coated microtiter plates. Type of assay: biochemical. The settings on record: PGT substrate, ATP, baculovirus ErbB2, 30 minutes at room temperature, optical density at 450 nm. Here is the method: The extent to which the compounds of the present invention modulate ErbB kinase activity can be determined using the following enzyme-linked immunosorbent assay (ELISA), which employs a microtiter plate coated with a protein tyrosine kinase specific polymer substrate. The phosphorylation reaction is performed on poly-Glu-Tyr 4:1 (PGT) coated microtiter plates in the presence on Mg^++, ATP and EGFR. The phosphorylated polymer substrate is detected with a phosphotyrosine specific monoclonal antibody conjugated to horseradish peroxidase (HRP). Chromogenic substrate (TMB) color is quantitiated by spectrophotometry.
The assay is performed in a 96-well microtiter plate (Immunlon 4, available from Dynex). To prepare the plate, 100 μL of 0.25 mg/mL Poly (Glu,Tyr) 4:1 Sodium Salt (available from Sigma, Catalog Number P0275) in phosphate buffered saline (PBS) is added to each well and the plates are sealed. Following incubation overnight at ambient temperature, this coating solution is removed and the plates are washed three times with 300 μL of 0.1% Tween 20 (available from Sigma, Catalog Number P2287) in PBS. If not using immediately, the coated microtiter plates may be stored at 2-8° C. with 150 μL of 0.1% Tween 20 in PBS in each well.
The compound to be tested is dissolved in DMSO at an initial concentration of 1.0 mM. This initial concentration is diluted 1:25 in DMSO, and the resulting solution is further serially diluted 1:5 eight times in DMSO. To 10 μL of the initial concentration and each dilution are added 240 μL Reaction Buffer (50 mM HEPES, 125 mM NaCl, 24 mM MgCl2, 0.1 mM Na3VO4 (boiled at pH 10 until colorless—approximately 10 minutes—and cooled prior to use), pH 7.3, filtered through a 0.2 micron filter). 25 μL of each compound solution (4% DMSO in Reaction Buffer for control) is placed in a separate microtiter plate well, along with 50 μL Reaction Buffer +ATP (15 μL 10 of mM ATP added to 5 mL Reaction Buffer) and 25 μL Reaction Buffer into which a catalytic amount of baculovirus ErbB2 has been added. The plate is then covered and incubated for 30 minutes at room temperature, after which time all liquid is aspirated from each well. The plate is washed three times with 300 μL of 0.1% Tween in PBS. Residual wash solution is removed by inverting the plate and blotting on a paper towel.
To each well is then added 100 μL of PBS containing 3% bovine serum albumin (protease-free, IgG-free, Jackson Catalog Number 001-000-162), 0.05% Tween 20 and 0.2 μg/mL anti-phosphotyrosine horseradisn peroxidase (available from Zymed, Laboratories, Inc., Catalog Number 03-7720). The plate is covered and incubated for 30 minutes at room temperature, after which time all liquid is aspirated from each well. The plate is washed three times with 300 μL of 0.1% Tween in PBS. Residual wash solution is removed by inverting the plate and blotting on a paper towel. To each well is then added 100 μL of TMB peroxidase substrate system (KPL Catalog Number 50-76-00), and the plate is allowed to incubate for 25 minutes at room temperature, at which time the reaction is stopped by the addition of 100 μL of 1M phosphoric acid to each well. The plate is tapped gently to ensure mixing.
Within about thirty minutes after the reaction is stopped, the optical density at 450 nm of each well is determined using a microtiter plate reader. A dose response curve is generated by plotting optical density versus compound concentration. IC50 is calculated from this curve using methods known in the art.
In general, IC50 refers to the point on the concentration scale where inhibition reaches its midpoint. Lower therefore signals greater potency. Take `CN/C(=N/C#N)NCCCOc1cc2c(Nc3ccc(OCc4cccc(F)c4)c(Cl)c3)ncnc2cc1OC` [Example 8, N-(3-{4-[3-Chloro-4-(3-fluoro-benzyloxy)-phenylamino]-7-methoxy-quinazolin-6-yloxy}-propyl) -N′-cyano-N″-methylguanidine]: the midpoint of inhibition, the IC50, lay at 0.04 µM.
`N#C/N=C(\NCc1ccc(-c2ccc3ncnc(Nc4ccc(OCc5cccc(F)c5)c(Cl)c4)c3c2)o1)N1CCOCC1` [Example 4, N-(5-{4-[3-Chloro-4-(3-fluoro-benzyloxy)-phenylamino]-quinazolin-6-yl}-furan-2-ylmethyl)-N′-cyano-morpholine-4-carboxamidine] showed an IC50 of 0.013 µM.
The value for `CN(C)/C(=N\C#N)NCC#Cc1ccc2ncnc(Nc3ccc(OCc4cccc(F)c4)c(Cl)c3)c2c1` [Example 1, N-(3-{4-[3-Chloro-4-(3-fluoro-benzyloxy)-phenylamino]-quinazolin-6-yl}-prop-2-ynyl)-N′-cyano-N″,N″-dimethylguanidine] was 0.085 µM; that for `COCCN(C)/C(=N/C#N)NC/C=C/c1ccc2ncnc(Nc3ccc4c(cnn4Cc4cccc(F)c4)c3)c2c1` [Example 10, N-cyano-N′-(3-{4-[1-(3-Fluoro-benzyl)-1H-indazol-5-ylamino]-quinazolin-6-yl}-allyl)-N″-(2-methoxy-ethyl)-N″-methylguanidine] was 0.017 µM; that for `Cc1ccc(Oc2ccc(Nc3ncnc4ccc(-c5csc(CN/C(N)=N\C#N)n5)cc34)cc2C)cn1` [Example 5, N-cyano-N′-(4-{4-[3-Methyl-4-(6-methyl-pyridin-3-yloxy)-phenylamino]-quinazolin-6-yl}-thiazol-2-ylmethyl)guanidine] was 0.031 µM.
To `N#C/N=C(/NCC#Cc1ccc2ncnc(Nc3ccc(OCc4cccc(F)c4)c(Cl)c3)c2c1)NCCO` [Example 2, N-(3-{4-[3-Chloro-4-(3-fluoro-benzyloxy)-phenylamino]-quinazolin-6-yl}-prop-2-ynyl)-N′-cyano-N″-3-(2-hydroxy-ethyl)guanidine] belongs 0.41 µM; to `Cc1ccc(Oc2ccc(Nc3ncnc4ccc(C#CCN/C(N)=N/C#N)cc34)cc2C)cn1` [Example 3, N-cyano-N′-(3-{4-[3-Methyl-4-(6-methyl-pyridin-3-yloxy)-phenylamino]-quinazolin-6-yl}-prop-2-ynyl)guanidine], 0.008 µM; to `N#C/N=C(\NCC#Cc1ccc2ncnc(Nc3ccc4c(cnn4Cc4cccc(F)c4)c3)c2c1)N1CCOCC1` [Example 9, N-cyano-N′-(3-{4-[1-(3-Fluoro-benzyl)-1 H-indazol-5-ylamino]-quinazolin-6-yl}-prop-2-ynyl)-morpholine-4-carboxamidine], 0.012 µM.
The value for `COc1cc2ncnc(Nc3ccc(OCc4ccccn4)c(Cl)c3)c2cc1OCCCN/C(=N\C#N)N(C)C` [Example 7, N-(3-{4-[3-Chloro-4-(pyridin-2-ylmethoxy)-phenylamino]-7-methoxy-quinazolin-6-yloxy}-propyl)-N′-cyano-N″,N″-dimethylguanidine] was 0.033 µM; that for `COc1cc2ncnc(Nc3ccc(OCc4ccccn4)c(Cl)c3)c2cc1OCCCN/C(=N\C#N)N(C)CCN(C)C` [Example 6, N-(3-{4-[3-Chloro-4-(pyridin-2-ylmethoxy)-phenylamino]-7-methoxy-quinazolin-6-yloxy}-propyl)-N′-cyano-N″-(2-dimethylamino-ethyl)-N″-methylguanidine] was 0.014 µM.
